“And” between values parts separate entries of the source, which are not always exact repeats. Equal entries are not always repeated. Toxic doses and inconclusive results are not listed. No stated cut-off is given here; in the data, active means T/C of 150% or more; inactive means T/C below 125%.
Test system: L1210 leukemia ip in BDF1 mice, survival T/C
Experiment: NCI In Vivo Anticancer Drug Screen. Data for tumor model L1210 Leukemia (intraperitoneal) in B6D2F1 (BDF1) mice
Details: endpoint: mean survival time, higher = longer survival
Summary of the method: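 Tumor cells were implanted, animals were treated, and survival was followed. The result divides the treated measurement by the vehicle-control measurement.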

[1] = dose: 100.0 mg/kg/injection, schedule: Q01DX001 (ip), vehicle: saline
[2] = dose: 100.0 mg/kg/injection, schedule: Q01DX009 (ip), vehicle: saline with Tween-80
[3] = dose: 200.0 mg/kg/injection, schedule: Q01DX001 (ip), vehicle: saline
[4] = dose: 200.0 mg/kg/injection, schedule: Q01DX009 (ip), vehicle: saline with Tween-80
[5] = dose: 400.0 mg/kg/injection, schedule: Q01DX001 (ip), vehicle: saline
[6] = dose: 400.0 mg/kg/injection, schedule: Q01DX009 (ip), vehicle: saline with Tween-80
[7] = dose: 300.0 mg/kg/injection, schedule: Q04DX003 (ip), vehicle: Klucel (hydroxypropylcellulose) (HPC)
[8] = dose: 100.0 mg/kg/injection, schedule: Q04DX003 (ip), vehicle: saline
[9] = dose: 200.0 mg/kg/injection, schedule: Q04DX003 (ip), vehicle: saline
[10] = dose: 50.0 mg/kg/injection, schedule: Q01DX009 (ip), vehicle: saline with Tween-80
[11] = dose: 100.0 mg/kg/injection, schedule: Q04DX002 (ip), vehicle: saline
[12] = dose: 100.0 mg/kg/injection, schedule: Q01DX009 (ip), vehicle: Klucel (hydroxypropylcellulose) (HPC)
[13] = dose: 100.0 mg/kg/injection, schedule: Q04DX002 (ip), vehicle: Klucel (hydroxypropylcellulose) (HPC)
[14] = dose: 200.0 mg/kg/injection, schedule: Q01DX009 (ip), vehicle: Klucel (hydroxypropylcellulose) (HPC)
[15] = dose: 200.0 mg/kg/injection, schedule: Q04DX002 (ip), vehicle: Klucel (hydroxypropylcellulose) (HPC)
[16] = dose: 100.0 mg/kg/injection, schedule: Q04DX003 (ip), vehicle: Klucel (hydroxypropylcellulose) (HPC)
[17] = dose: 200.0 mg/kg/injection, schedule: Q04DX003 (ip), vehicle: Klucel (hydroxypropylcellulose) (HPC)
[18] = dose: 400.0 mg/kg/injection, schedule: Q04DX002 (ip), vehicle: Klucel (hydroxypropylcellulose) (HPC)
[19] = dose: 100.0 mg/kg/injection, schedule: Q01DX009 (ip), vehicle: other
[20] = dose: 200.0 mg/kg/injection, schedule: Q01DX009 (ip), vehicle: other
[21] = dose: 100.0 mg/kg/injection, schedule: Q04DX003 (ip), vehicle: gum acacia
[22] = dose: 200.0 mg/kg/injection, schedule: Q04DX003 (ip), vehicle: gum acacia
[23] = dose: 400.0 mg/kg/injection, schedule: Q04DX003 (ip), vehicle: gum acacia

Measured: T/C

CCN(CC)CC(=O)CC12CC3CC(CC(C3)C1)C2
inactive: dose: 0.8 mg/kg/injection, schedule: Q04DX002 (ip), vehicle: saline 93 % of control | dose: 1.6 mg/kg/injection, schedule: Q04DX002 (ip), vehicle: saline 97 % of control | dose: 3.1 mg/kg/injection, schedule: Q04DX002 (ip), vehicle: saline 101 % of control | dose: 6.25 mg/kg/injection, schedule: Q04DX002 (ip), vehicle: saline 97 % of control

O=C(OC1CCC(c2ccccc2)C1)c1cc([N+](=O)[O-])cc([N+](=O)[O-])c1 (stereo not drawn)
inactive: dose: 75.0 mg/kg/injection, schedule: Q04DX003 (ip), vehicle: other 96 % of control | dose: 150.0 mg/kg/injection, schedule: Q04DX003 (ip), vehicle: other 92 % of control | dose: 300.0 mg/kg/injection, schedule: Q04DX003 (ip), vehicle: other 87 % of control

O=C(O)C1C2CC3C(OC(=O)C31)C2Br (stereo not drawn)
inactive: [1] 104 % of control | [2] 91 % of control | dose: 100.0 mg/kg/injection, schedule: Q04DX003 (ip), vehicle: saline with Tween-80 91 % of control | [3] 94 % of control | [4] 96 % of control | dose: 200.0 mg/kg/injection, schedule: Q04DX003 (ip), vehicle: saline with Tween-80 100 % of control | [5] 97 % of control | [6] 91 % of control | dose: 400.0 mg/kg/injection, schedule: Q04DX003 (ip), vehicle: saline with Tween-80 104 % of control

OCn1c(O)c2ccccc2c1N=Nc1ccccc1
inactive: [1] 95 % of control | [3] 95 % of control | [5] 95 % of control

COC(=O)c1c(C(=O)O)coc1C(=O)N1CCCC1
inactive: dose: 75.0 mg/kg/injection, schedule: Q04DX003 (ip), vehicle: Klucel (hydroxypropylcellulose) (HPC) 105 % of control | dose: 100.0 mg/kg/injection, schedule: Q01DX001 (ip), vehicle: Klucel (hydroxypropylcellulose) (HPC) 100 % of control | dose: 150.0 mg/kg/injection, schedule: Q04DX003 (ip), vehicle: Klucel (hydroxypropylcellulose) (HPC) 89 % of control | dose: 200.0 mg/kg/injection, schedule: Q01DX001 (ip), vehicle: Klucel (hydroxypropylcellulose) (HPC) 97 % of control | [7] 91 % of control | dose: 400.0 mg/kg/injection, schedule: Q01DX001 (ip), vehicle: Klucel (hydroxypropylcellulose) (HPC) 105 % of control

O=C(Cl)c1ccccc1/C=C/c1ccccc1
inactive: [2] 89 % of control | [4] 89 % of control | [6] 93 % of control

CSc1nc2[nH]cc(C(=O)O)c(=O)c2c(=O)[nH]1
inactive: [8] 104 % of control | [9] 101 % of control | dose: 400.0 mg/kg/injection, schedule: Q04DX003 (ip), vehicle: saline 91 % of control

O=C1NC(=O)C(c2ccccc2)(C2CCC2)N1 (stereo not drawn)
inactive: [2] 93 % of control | [4] 103 % of control | [6] 95 % of control

OC1CCCCC1C1CCCCC1 (stereo not drawn)
inactive: [10] 94 % of control | [2] 94 % of control | [11] 121 % of control | dose: 300.0 mg/kg/injection, schedule: Q04DX002 (ip), vehicle: saline 107 % of control | dose: 400.0 mg/kg/injection, schedule: Q04DX002 (ip), vehicle: saline 100 % of control

CCCNC(=O)Oc1cccc2cccnc12
inactive: [12] 93 % of control and 95 % of control | [13] 97 % of control and 105 % of control | [14] 101 % of control and 112 % of control | [15] 102 % of control and 103 % of control | dose: 400.0 mg/kg/injection, schedule: Q01DX009 (ip), vehicle: Klucel (hydroxypropylcellulose) (HPC) 95 % of control

Cc1nc2c(O)cccn2c(=O)c1Cl
inactive: dose: 25.0 mg/kg/injection, schedule: Q01DX009 (ip), vehicle: saline with Tween-80 92 % of control | [10] 94 % of control | [2] 97 % of control

O=C(c1ccccc1)c1nc2ccccc2nc1-c1ccccc1
inactive: [16] 92 % of control | [17] 92 % of control | dose: 400.0 mg/kg/injection, schedule: Q04DX003 (ip), vehicle: Klucel (hydroxypropylcellulose) (HPC) 89 % of control

Cc1cn(C2CC(O)C(COP(=O)(N3CC3(C)C)N3CC3(C)C)O2)c(=O)[nH]c1=O (stereo not drawn)
inactive: dose: 50.0 mg/kg/injection, schedule: Q04DX002 (ip), vehicle: saline 94 % of control | [11] 105 % of control | dose: 200.0 mg/kg/injection, schedule: Q04DX002 (ip), vehicle: saline 123 % of control

CCN(C(=O)c1ccccc1Cl)C(c1ccco1)P(=O)(c1ccccc1)c1ccccc1 (stereo not drawn)
inactive: dose: 100.0 mg/kg/injection, schedule: Q04DX002 (ip), vehicle: saline with Tween-80 93 % of control | dose: 200.0 mg/kg/injection, schedule: Q04DX002 (ip), vehicle: saline with Tween-80 86 % of control | dose: 400.0 mg/kg/injection, schedule: Q04DX002 (ip), vehicle: saline with Tween-80 117 % of control

CC(=O)COc1ccc(C(=O)Cl)cc1
inactive: [16] 95 % of control | [17] 102 % of control | [7] 106 % of control

CN(C)C(=S)SC(=S)N(C)C
inactive: dose: 25.0 mg/kg/injection, schedule: Q04DX002 (ip), vehicle: Klucel (hydroxypropylcellulose) (HPC) 106 % of control | dose: 50.0 mg/kg/injection, schedule: Q04DX002 (ip), vehicle: Klucel (hydroxypropylcellulose) (HPC) 100 % of control | [13] 89 % of control | [15] 91 % of control | [18] 98 % of control

COc1cc2c(cc1O)C(=O)CCC=C2
inactive: dose: 50.0 mg/kg/injection, schedule: Q01DX009 (ip), vehicle: other 102 % of control | [19] 98 % of control | [20] 94 % of control

NC(N)=NCCCC(NC(=O)c1ccccc1)C(=O)O (stereo not drawn)
inactive: dose: 100.0 mg/kg/injection, schedule: Q01DX001 (ip), vehicle: other 104 % of control | [19] 101 % of control | dose: 100.0 mg/kg/injection, schedule: Q04DX003 (ip), vehicle: other 93 % of control | dose: 200.0 mg/kg/injection, schedule: Q01DX001 (ip), vehicle: other 100 % of control | [20] 107 % of control | dose: 200.0 mg/kg/injection, schedule: Q04DX003 (ip), vehicle: other 90 % of control | dose: 400.0 mg/kg/injection, schedule: Q01DX001 (ip), vehicle: other 100 % of control | dose: 400.0 mg/kg/injection, schedule: Q01DX009 (ip), vehicle: other 100 % of control | dose: 400.0 mg/kg/injection, schedule: Q04DX003 (ip), vehicle: other 96 % of control

CCc1ccccc1NC(=O)Nc1cccc2ccccc12
inactive: dose: 100.0 mg/kg/injection, schedule: Q01DX009 (ip), vehicle: gum acacia 98 % of control | [21] 96 % of control | dose: 200.0 mg/kg/injection, schedule: Q01DX009 (ip), vehicle: gum acacia 95 % of control | [22] 96 % of control | dose: 400.0 mg/kg/injection, schedule: Q01DX009 (ip), vehicle: gum acacia 88 % of control | [23] 93 % of control

CCOc1ccc(C2(C)OC(=O)C3CCCCC32)c2ccccc12 (stereo not drawn)
inactive: [21] 100 % of control | [22] 95 % of control | [23] 90 % of control

Ic1ccc(/C=N/Nc2nnc(N/N=C/c3ccc(I)cc3)c3ccccc23)cc1
inactive: dose: 50.0 mg/kg/injection, schedule: Q01DX001 (ip), vehicle: saline 98 % of control | [1] 96 % of control | [3] 98 % of control | [5] 98 % of control

O=C(O)c1ccccc1S(=O)O
inactive: dose: 50.0 mg/kg/injection, schedule: Q04DX002 (ip), vehicle: other 119 % of control | dose: 100.0 mg/kg/injection, schedule: Q04DX002 (ip), vehicle: other 122 % of control | [15] 89 % of control | dose: 200.0 mg/kg/injection, schedule: Q04DX002 (ip), vehicle: other 91 % of control | [18] 103 % of control

NC(N)=NCCCC(NC(=O)OCc1ccccc1)C(=O)Nc1ccc2ccccc2c1 (stereo not drawn)
inactive: [12] 102 % of control | [14] 103 % of control

OCC1CCCN2CCCCC12 (stereo not drawn)
inactive: [8] 98 % of control | [9] 90 % of control
